# Reference: patent US20060252732A1, “Blood vessel-growth promoter” (priority 2003, published 2006)
# Columns and labels:
# Wister female rats = experiment: Neo-vascularization test using rats (subcutaneous urethane sponge, carmine dye); assay type: in vivo, rat
# Experimental: Neo-Vascularization Test Using Rats
# Wister female rats (7 weeks old; n=6) were anesthetized with ether, and a urethane sponge (diameter: 8 mm) previously permeating a drug was inserted in subcutaneous tissue of right shoulder. As a test drug, acetylsalicylic acid (2 mg) and as a positive control retinoid (0.5 mg) were administered, respectively. Four days later after insertion of the sponge, 5% gelatin solution containing 5% carmine dye kept at 37° C. was administered under ether anesthesia in tail vein of the rat. After injection, the rats in suspended animation were left at 4° C. for 2 hours, and the gelatin solution containing carmine dye distributed in blood vessel was solidified. After butcher of the rats, the sponge with granulation tissue was extracted and the dye therein was extracted. Absorbancy at 530 nm was measured to calculate the amount of the carmine dye.
# [1] = tested on: human vascular endothelial cells (HUVEC) and fibroblast; experiment: Measurement of neo-vascularization ability (tube formation, CD31 staining, Angiogenesis Kit KZ-1000); assay type: cell-based
# Experimental: Measurement of Neo-Vascularization Ability
# The tube formation by a mixture-system of human vascular endothelial cells (HUVEC) and fibroblast was investigated by CD31 staining kit (Kurabo Ind.) to be visualized, and be made score by an analytical soft (NIH Image). A broth containing acetylsalicylic (0.5, 5.5, 55 μM; changed every three days) was added to neo-vascularization kit (Angiogenesis Kit KZ-1000; Kurabo Ind.) prepared by mixing human vascular endothelial cells and fibroblast, and the resulting broth was cultivated for 11 days. Then immuno histochemical study was performed by using CD31 staining kit, and the color photo was taken. The picture was analyzed using NIH Image and the amount of the formed tubes was scored as an area to evaluate. As a positive control, vascula endothelial growth factor (VEGF; 10 ng/mL) and as a negative control sramine (100 μM) were used, respectively.
# [2] = tested on: human umbilical vein endothelial cells (HUVEC); experiment: Proliferation test on human umbilical vein endothelial cells (HUVEC); assay type: cell-based
# Experimental: Proliferation Test on Human Umbilical Vein Endothelial Cells (HUVEC) […] After the culture broth was filtered by suction, to a minimum essential medium (MEM) broth containing 1% FBS, acetylsalicylic acid was added at a concentration (0, 0.055, 0.55, 5.5, 55, 555 μM, respectively) and each mixture was cultivated. After 0, 24 and 48 hours the number of alive cells was counted. As a positive control vascular endothelial growth factor (VEGF; Vascular Endothelial Growth Factor-A) (20 ng/mL) was used. In this measurement, Cell Counting Kit-8 (Dojin Chemical Co.) was used.
compound,measurement,setting,value
"CC(=O)Oc1ccccc1C(=O)O [Acetylsalicylic acid, acetylsalicylic acid]",Neo-vascularization promoting activity in vivo,Wister female rats,neo-vascularization promoting activity was shown
same,Amount of carmine dye,"Wister female rats; 2 mg in sponge, subcutaneous, 4 days after insertion",16.0 ± 4.2 µg/mL
same,Tube-formation promoting activity,[1],showed tube-formation promoting activity
same,"Neo-vascularization ability, Relative area After 11 days",[1]; 5.5 μM,1.17
same,"Neo-vascularization ability, Relative area After 11 days",[1]; 55 μM,1.08
same,"Change of the number of HUVEC, Relative absorvancy","[2]; 0.055 μM drug, after 0 hour",1.102
same,"Change of the number of HUVEC, Relative absorvancy","[2]; 0.055 μM drug, after 24 hours",1.252
same,"Change of the number of HUVEC, Relative absorvancy","[2]; 0.055 μM drug, after 48 hours",1.303
same,"Change of the number of HUVEC, Relative absorvancy","[2]; 0.55 μM drug, after 0 hour",1.144
same,"Change of the number of HUVEC, Relative absorvancy","[2]; 0.55 μM drug, after 24 hours",2.001
same,"Change of the number of HUVEC, Relative absorvancy","[2]; 0.55 μM drug, after 48 hours",1.709
same,"Change of the number of HUVEC, Relative absorvancy","[2]; 5.5 μM drug, after 0 hour",1.084
same,"Change of the number of HUVEC, Relative absorvancy","[2]; 5.5 μM drug, after 24 hours",1.811
same,"Change of the number of HUVEC, Relative absorvancy","[2]; 5.5 μM drug, after 48 hours",1.575
same,"Change of the number of HUVEC, Relative absorvancy","[2]; 55 μM drug, after 0 hour",1.107
same,"Change of the number of HUVEC, Relative absorvancy","[2]; 55 μM drug, after 24 hours",1.754
same,"Change of the number of HUVEC, Relative absorvancy","[2]; 55 μM drug, after 48 hours",1.475
same,"Change of the number of HUVEC, Relative absorvancy","[2]; 555 μM drug, after 0 hour",1.017
same,"Change of the number of HUVEC, Relative absorvancy","[2]; 555 μM drug, after 24 hours",1.044
same,"Change of the number of HUVEC, Relative absorvancy","[2]; 555 μM drug, after 48 hours",0.699
same,Proliferation promoting activity of HUVEC,[2]; added in more than 0.055 μM,proliferation promoting activity of HUVEC was confirmed
same,Proliferation promoting effect on HUVEC,[2]; added in more than 555 μM,proliferation promoting effect was not recognized or was even depressed
"Cc1ccc(C(=O)Nc2ccc(S(=O)(=O)O)c3cc(S(=O)(=O)O)cc(S(=O)(=O)O)c23)cc1NC(=O)c1cccc(NC(=O)Nc2cccc(C(=O)Nc3cc(C(=O)Nc4ccc(S(=O)(=O)O)c5cc(S(=O)(=O)O)cc(S(=O)(=O)O)c45)ccc3C)c2)c1 [Sramine, sramine]","Neo-vascularization ability, Relative area After 11 days",[1]; 100 μM (negative control),0.04
VEGF,"Neo-vascularization ability, Relative area After 11 days",[1]; 10 ng/mL (positive control),1.71
same,"Change of the number of HUVEC, Relative absorvancy","[2]; 20 ng/mL (positive control), after 0 hour",1.003
same,"Change of the number of HUVEC, Relative absorvancy","[2]; 20 ng/mL (positive control), after 24 hours",2.041
same,"Change of the number of HUVEC, Relative absorvancy","[2]; 20 ng/mL (positive control), after 48 hours",1.889
